# In PMC12310023 (PLOS Neglected Tropical Diseases, 2025):
# Tested on: NLuc-expressing C. parvum
# Assay: NLuc C. parvum IFNγ-KO mouse infection model, oocyst shedding
# Format: in vivo
compound,measurement,setting,value
CC(C)(CO)Cn1nc(-c2ccc3cc(OC4CC4)ccc3c2)c(C(N)=O)c1N [compound 1708],RLU standardized by fecal weight,"15 mg/kg x 3 days, group I, day 6 p.i., Cp Mouse Efficacy 2",251957 RLU
same,RLU standardized by fecal weight,"15 mg/kg x 3 days, group I, day 7 p.i., Cp Mouse Efficacy 2",85920 RLU
same,RLU standardized by fecal weight,"15 mg/kg x 3 days, group I, day 8 p.i., Cp Mouse Efficacy 2",79354 RLU
same,RLU standardized by fecal weight,"15 mg/kg x 3 days, group I, day 9 p.i., Cp Mouse Efficacy 2",5065 RLU
same,RLU standardized by fecal weight,"15 mg/kg x 3 days, group I, day 10 p.i., Cp Mouse Efficacy 2",1311 RLU
same,RLU standardized by fecal weight,"15 mg/kg x 3 days, group I, day 13 p.i., Cp Mouse Efficacy 2",474 RLU
same,RLU standardized by fecal weight,"15 mg/kg x 3 days, group I, day 15 p.i., Cp Mouse Efficacy 2",57 RLU
same,RLU standardized by fecal weight,"15 mg/kg x 3 days, group I, day 17 p.i., Cp Mouse Efficacy 2",57 RLU
same,RLU standardized by fecal weight,"15 mg/kg x 3 days, group I, day 20 p.i., Cp Mouse Efficacy 2",227 RLU
same,RLU Raw,"30 mg/kg QD x3, group G, Day 6, Cp Mouse Efficacy 1",1295216 RLU
same,RLU Raw,"30 mg/kg QD x3, group G, Day 7, Cp Mouse Efficacy 1",1222624 RLU
same,RLU Raw,"30 mg/kg QD x3, group G, Day 8, Cp Mouse Efficacy 1",619376 RLU
same,RLU Raw,"30 mg/kg QD x3, group G, Day 9, Cp Mouse Efficacy 1",66208 RLU
same,RLU Raw,"30 mg/kg QD x3, group G, Day 10, Cp Mouse Efficacy 1",17152 RLU
same,RLU Raw,"30 mg/kg QD x3, group G, Day 13, Cp Mouse Efficacy 1",2912 RLU
same,RLU Raw,"30 mg/kg QD x3, group G, Day 15, Cp Mouse Efficacy 1",4896 RLU
same,RLU Raw,"30 mg/kg QD x3, group G, Day 17, Cp Mouse Efficacy 1",1792 RLU
same,RLU Raw,"30 mg/kg QD x3, group G, Day 20, Cp Mouse Efficacy 1",7008 RLU
same,RLU standardized by fecal weight,"30 mg/kg QD x3, group G, day 6 p.i., Cp Mouse Efficacy 1",182425 RLU
same,RLU standardized by fecal weight,"30 mg/kg QD x3, group G, day 7 p.i., Cp Mouse Efficacy 1",166343 RLU
same,RLU standardized by fecal weight,"30 mg/kg QD x3, group G, day 8 p.i., Cp Mouse Efficacy 1",154844 RLU
same,RLU standardized by fecal weight,"30 mg/kg QD x3, group G, day 9 p.i., Cp Mouse Efficacy 1",14087 RLU
same,RLU standardized by fecal weight,"30 mg/kg QD x3, group G, day 10 p.i., Cp Mouse Efficacy 1",2907 RLU
same,RLU standardized by fecal weight,"30 mg/kg QD x3, group G, day 13 p.i., Cp Mouse Efficacy 1",391 RLU
same,RLU standardized by fecal weight,"30 mg/kg QD x3, group G, day 15 p.i., Cp Mouse Efficacy 1",401 RLU
same,RLU standardized by fecal weight,"30 mg/kg QD x3, group G, day 17 p.i., Cp Mouse Efficacy 1",224 RLU
same,RLU standardized by fecal weight,"30 mg/kg QD x3, group G, day 20 p.i., Cp Mouse Efficacy 1",904 RLU
same,RLU Raw,"30 mg/kg x 1 days, group F, Day 6, Cp Mouse Efficacy 2",255712 RLU
same,RLU Raw,"30 mg/kg x 1 days, group F, Day 7, Cp Mouse Efficacy 2",157696 RLU
same,RLU Raw,"30 mg/kg x 1 days, group F, Day 8, Cp Mouse Efficacy 2",335600 RLU
same,RLU Raw,"30 mg/kg x 1 days, group F, Day 9, Cp Mouse Efficacy 2",101760 RLU
same,RLU Raw,"30 mg/kg x 1 days, group F, Day 10, Cp Mouse Efficacy 2",181040 RLU
same,RLU Raw,"30 mg/kg x 1 days, group F, Day 13, Cp Mouse Efficacy 2",15056 RLU
same,RLU Raw,"30 mg/kg x 1 days, group F, Day 15, Cp Mouse Efficacy 2",22080 RLU
same,RLU Raw,"30 mg/kg x 1 days, group F, Day 17, Cp Mouse Efficacy 2",4144 RLU
same,RLU Raw,"30 mg/kg x 1 days, group F, Day 20, Cp Mouse Efficacy 2",2768 RLU
same,RLU standardized by fecal weight,"30 mg/kg x 1 days, group F, day 6 p.i., Cp Mouse Efficacy 2",39645 RLU
same,RLU standardized by fecal weight,"30 mg/kg x 1 days, group F, day 7 p.i., Cp Mouse Efficacy 2",24640 RLU
same,RLU standardized by fecal weight,"30 mg/kg x 1 days, group F, day 8 p.i., Cp Mouse Efficacy 2",55471 RLU
same,RLU standardized by fecal weight,"30 mg/kg x 1 days, group F, day 9 p.i., Cp Mouse Efficacy 2",16820 RLU
same,RLU standardized by fecal weight,"30 mg/kg x 1 days, group F, day 10 p.i., Cp Mouse Efficacy 2",20342 RLU
same,RLU standardized by fecal weight,"30 mg/kg x 1 days, group F, day 13 p.i., Cp Mouse Efficacy 2",2841 RLU
same,RLU standardized by fecal weight,"30 mg/kg x 1 days, group F, day 15 p.i., Cp Mouse Efficacy 2",3046 RLU
same,RLU standardized by fecal weight,"30 mg/kg x 1 days, group F, day 17 p.i., Cp Mouse Efficacy 2",975 RLU
same,RLU standardized by fecal weight,"30 mg/kg x 1 days, group F, day 20 p.i., Cp Mouse Efficacy 2",410 RLU
same,RLU Raw,"60 mg/kg QD x3, group F, Day 6, Cp Mouse Efficacy 1",2614768 RLU
same,RLU Raw,"60 mg/kg QD x3, group F, Day 7, Cp Mouse Efficacy 1",2391472 RLU
same,RLU Raw,"60 mg/kg QD x3, group F, Day 8, Cp Mouse Efficacy 1",411984 RLU
same,RLU Raw,"60 mg/kg QD x3, group F, Day 9, Cp Mouse Efficacy 1",18336 RLU
same,RLU Raw,"60 mg/kg QD x3, group F, Day 10, Cp Mouse Efficacy 1",2272 RLU
same,RLU Raw,"60 mg/kg QD x3, group F, Day 13, Cp Mouse Efficacy 1",576 RLU
same,RLU Raw,"60 mg/kg QD x3, group F, Day 15, Cp Mouse Efficacy 1",304 RLU
same,RLU Raw,"60 mg/kg QD x3, group F, Day 17, Cp Mouse Efficacy 1",144 RLU
same,RLU Raw,"60 mg/kg QD x3, group F, Day 20, Cp Mouse Efficacy 1",224 RLU
same,RLU standardized by fecal weight,"60 mg/kg QD x3, group F, day 6 p.i., Cp Mouse Efficacy 1",261477 RLU
same,RLU standardized by fecal weight,"60 mg/kg QD x3, group F, day 7 p.i., Cp Mouse Efficacy 1",201812 RLU
same,RLU standardized by fecal weight,"60 mg/kg QD x3, group F, day 8 p.i., Cp Mouse Efficacy 1",45026 RLU
same,RLU standardized by fecal weight,"60 mg/kg QD x3, group F, day 9 p.i., Cp Mouse Efficacy 1",3245 RLU
same,RLU standardized by fecal weight,"60 mg/kg QD x3, group F, day 10 p.i., Cp Mouse Efficacy 1",215 RLU
same,RLU standardized by fecal weight,"60 mg/kg QD x3, group F, day 13 p.i., Cp Mouse Efficacy 1",93 RLU
same,RLU standardized by fecal weight,"60 mg/kg QD x3, group F, day 15 p.i., Cp Mouse Efficacy 1",78 RLU
same,RLU standardized by fecal weight,"60 mg/kg QD x3, group F, day 17 p.i., Cp Mouse Efficacy 1",33 RLU
same,RLU standardized by fecal weight,"60 mg/kg QD x3, group F, day 20 p.i., Cp Mouse Efficacy 1",67 RLU
same,RLU Raw,"60 mg/kg x 1 day, group E, Day 6, Cp Mouse Efficacy 2",814080 RLU
same,RLU Raw,"60 mg/kg x 1 day, group E, Day 7, Cp Mouse Efficacy 2",339152 RLU
same,RLU Raw,"60 mg/kg x 1 day, group E, Day 8, Cp Mouse Efficacy 2",54176 RLU
same,RLU Raw,"60 mg/kg x 1 day, group E, Day 9, Cp Mouse Efficacy 2",52848 RLU
same,RLU Raw,"60 mg/kg x 1 day, group E, Day 10, Cp Mouse Efficacy 2",91232 RLU
same,RLU Raw,"60 mg/kg x 1 day, group E, Day 13, Cp Mouse Efficacy 2",5456 RLU
same,RLU Raw,"60 mg/kg x 1 day, group E, Day 15, Cp Mouse Efficacy 2",4592 RLU
same,RLU Raw,"60 mg/kg x 1 day, group E, Day 17, Cp Mouse Efficacy 2",5520 RLU
same,RLU Raw,"60 mg/kg x 1 day, group E, Day 20, Cp Mouse Efficacy 2",2336 RLU
same,RLU standardized by fecal weight,"60 mg/kg x 1 day, group E, day 6 p.i., Cp Mouse Efficacy 2",144085 RLU
same,RLU standardized by fecal weight,"60 mg/kg x 1 day, group E, day 7 p.i., Cp Mouse Efficacy 2",44625 RLU
same,RLU standardized by fecal weight,"60 mg/kg x 1 day, group E, day 8 p.i., Cp Mouse Efficacy 2",11405 RLU
same,RLU standardized by fecal weight,"60 mg/kg x 1 day, group E, day 9 p.i., Cp Mouse Efficacy 2",12435 RLU
same,RLU standardized by fecal weight,"60 mg/kg x 1 day, group E, day 10 p.i., Cp Mouse Efficacy 2",12329 RLU
same,RLU standardized by fecal weight,"60 mg/kg x 1 day, group E, day 13 p.i., Cp Mouse Efficacy 2",774 RLU
same,RLU standardized by fecal weight,"60 mg/kg x 1 day, group E, day 15 p.i., Cp Mouse Efficacy 2",399 RLU
same,RLU standardized by fecal weight,"60 mg/kg x 1 day, group E, day 17 p.i., Cp Mouse Efficacy 2",726 RLU
same,RLU standardized by fecal weight,"60 mg/kg x 1 day, group E, day 20 p.i., Cp Mouse Efficacy 2",525 RLU
